The source of these data is patent US20050037446A1, “Agents that recognize src when phosphorylated at serine 17” (priority 2001, published 2005).

The structures appear in SMILES notation.

Assay [1] relates to Rap1. The assay is described as follows: Rap1 activation assay in Src++ and SYF fibroblasts. The format is cell-based, mouse. As for the experimental part: The Rap1 activation affinity assay was performed as follows. A GST fusion protein of the Rap1-binding domain of RalGDS (GST-RalGDS, Dr. Bos, Utrecht University, The Netherlands) was expressed in E. coli following induction by isopropyl-1thio-β-D-galactopyranoside. Active Rap1 was isolated as previously described (Franke et al., EMBO J. 16:252-9, 1997). Briefly, equivalent amounts of supernatants (500 μg) were incubated with GST-RalGDS-Rap1 binding domain coupled to glutathione beads. Following a one hour incubation at 4° C., beads were pelleted and rinsed threes times with ice-cold lysis buffer. The protein was eluted from the beads using 2× Laemmli buffer and applied to a 12% SDS-polyacrylamide gel. […] Proteins were detected using enhanced chemiluminescence. […]
Following selection, SYF cells were left untreated or stimulated with Forskolin in the presence or absence of H89 or PP2. Cells were lysed in ice-cold lysis buffer and the lysates analyzed by Western blot for phosphorylation of myc-ERK2 as described above. […]
SYF cells were co-transfected with Flag-Rap1 and either vector, Flag-Src, or Flag-SrcS 17A and stimulated with Forskolin as described in the above examples. Cell lysates were examined for Rap1 activation using the method described in EXAMPLE 1 or analyzed by Western blot to identify Flag-containing proteins. […]

In assay [2] the test system is Ras. The assay is described as follows: Ras activation affinity assay in SYF and Src++ cells. Type of assay: cell-based, mouse. As for the experimental part:
Endogenous GTP-loaded Ras was determined using a Ras activation affinity assay as follows. Hek293 cells were grown, stimulated, and lysed as described above. Activated Ras was assayed as previously described (Schmitt and Stork, Mol. Cell. Biol. 21:3671-83, 2001). Briefly, equivalent amounts of lysates from stimulated cells were incubated with GST-Rafl-RBD (Ras-binding domain) as specified by the manufacturer (Upstate Biotechnology, Lake Placid, N.Y.). Proteins were eluted with 2×Laemmli buffer and applied to a 12% SDS polyacrylamide gel. Proteins were transferred to a PVDF membrane, blocked at room temperature for 1 hour in 5% milk and probed with either Ras or Flag antibody overnight at 4° C., followed by an HRP-conjugated anti-mouse secondary. Proteins were detected using enhanced chemiluminescence.
To determine which SFK was mediating these effects, cell lines derived from mouse embryo fibroblasts that lack SFKs, were used as described in Example 3. SYF and Srcd cells were transfected with Flag-Rap 1, and WT Src or pcDNA3 vector alone as described in Example 3. Cells were stimulated with isoproterenol or left untreated, and then cell lysates were examined for active GTP-loaded Rap1 (Flag-Rap1-GTP) as described in Examples 1 and 6. Isoproterenol's ability to activate Rap1 was absent in SYF cells, but was retained in Src^++ cells. […]

Turning to `CC(C)NCC(O)c1ccc(O)c(O)c1` (stereo not shown) [isoproterenol], the “Rap1 activation by agonist” value is listed as “absent” in assay [1] (SYF cells) and “retained” in assay [1] (Src++ cells). The “Ras activation by agonist” value in assay [2] (SYF cells) was “absent”; in assay [2] (Src++ cells), “retained”.
